Literature values as cited in patent US20220339173A1, “ORAL COMPOSITION FOR IMPROVING MEMORY-LEARNING ABILITY” (priority 2019, published 2022).

Tested on: c-Fos activity

## phosphatidylserine
hippocampus
  c-Fos activity in the hippocampus: no changes
Paraventricular nucleus
  c-Fos activity in the paraventricular nucleus: changes in c-Fos activity in the brain region are found
